Experimental data: PMC4551668 (Microbial Cell Factories, 2015)

Columns and labels:
[1] = target: MPH (Ochr-MPH) (Ochrobactrum sp. M231, UniProt B2Z3X1); conditions: CHBD-MPH, tag excised by Kex2; substrate not named, taken from enzyme name and text; assay conditions only by reference
Text: (§1) steady-state kinetics, purified enzyme, standard MPH assay on MPH (Ochr-MPH)

[2] = target: MPH (Ochr-MPH) (Ochrobactrum sp. M231, UniProt B2Z3X1, K277D/K284Q/K285R); conditions: CHBD-DQR; same
Text: as §1

[3] = target: MPH (Ochr-MPH) (Ochrobactrum sp. M231, UniProt B2Z3X1, K284Q/K285R); conditions: CHBD-QR; same
Text: as §1

Sequence of MPH (Ochr-MPH) (Ochrobactrum sp. M231, UniProt B2Z3X1) (B2Z3X1 entry or part of it): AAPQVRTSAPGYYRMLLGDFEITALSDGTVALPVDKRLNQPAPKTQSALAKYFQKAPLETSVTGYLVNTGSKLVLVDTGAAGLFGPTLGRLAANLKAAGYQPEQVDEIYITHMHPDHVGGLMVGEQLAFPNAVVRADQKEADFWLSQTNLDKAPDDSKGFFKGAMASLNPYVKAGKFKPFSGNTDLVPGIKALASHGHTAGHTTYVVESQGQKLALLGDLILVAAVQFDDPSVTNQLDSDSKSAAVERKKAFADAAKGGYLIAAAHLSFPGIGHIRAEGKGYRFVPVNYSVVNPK
Sequence of MPH (Ochr-MPH) (Ochrobactrum sp. M231, UniProt B2Z3X1, K284Q/K285R) (B2Z3X1 entry or part of it K284Q/K285R): as the sequence (B2Z3X1 entry or part of it) above, with K249Q, K250R counted along it
Sequence of MPH (Ochr-MPH) (Ochrobactrum sp. M231, UniProt B2Z3X1, K277D/K284Q/K285R) (B2Z3X1 entry or part of it K277D/K284Q/K285R): as the sequence (B2Z3X1 entry or part of it) above, with K242D, K249Q, K250R counted along it

COP(=S)(OC)Oc1ccc([N+](=O)[O-])cc1 [methyl parathion]
Km [1]: 86.9 ± 5.85 µM
Km [2]: 168 ± 7.57 µM
Km [3]: 119 ± 8.26 µM
